{"source": "ChEMBL document CHEMBL6074642", "about": "“Natural and Bioinspired Lipidic Alkynylcarbinols as Leishmanicidal, Antiplasmodial, Trypanocidal, Fungicidal, Antibacterial, and Antimycobacterial Agents” (J Nat Prod, 2024)", "tested_on": "Mycobacterium tuberculosis", "assay": "Antibacterial activity against multi-drug resistant Mycobacterium tuberculosis assessed as reduction in microbial growth", "assay_type": "functional"}
{"compound": "C=C[C@@H](O)C#CC#C[C@@H](O)/C=C\\CCCCCCC", "note": "[FALCARINDIOL]", "values": [{"measurement": "MIC", "value": 32, "unit": "µg/mL"}]}
